Measured values from patent US20200399238A1, “THERAPEUTIC AURONES” (MIDDLE TENNESSEE STATE UNIVERSITY, priority 2016, published 2020).
Where two headings read alike, the source gives them in different places.

What was measured:
[1] = test system: PMA-differentiated THP-1 cells; assay: Alamar Blue cell viability assay, THP-1; type: cell-based, human; conditions: THP-1 cells, 4 h with LPS, mean ± SD
Description: THP-1 cells were maintained in RPMI 1640 medium supplemented with 10% heat-inactivated FBS and 1% penicillin/streptomycin (complete culture medium) at 37° C. with 5% CO2 supplemented. Cell concentrations were adjusted to desired concentrations for each experiment by centrifugation at 500×g for 5 min and resuspended in complete culture medium with 100 nM of PMA. Cell concentration was adjusted to 5×10^5 cells/ml for all assays with the exception of 2.5×10^5 cells/ml were used for NF-κB nuclear translocation assay. Cells were seeded onto 96-, 24-, or 12-well plates and incubated for 48 to 72 h to allow for differentiation. Cells were washed with serum-free RPMI 1640 medium before each experiment to remove undifferentiated cells. […] Cells were seeded into tissue culture plates at 10% confluence and grown to 80% confluence within 72 h. For live cell microscopy, 1×10^5 cells/ml were seeded into 35 mm glass-bottom (MatTek) dishes 24 h prior to imaging. For luciferase assays, 1.2×10^5 cells/well were seeded into 24-well tissue culture-treated plates.
Following treatment, the relative cell viability was measured by Alamar Blue assay. For Alamar Blue assays, supernatants were replaced with culture medium containing 1× Alamar Blue reagent and incubated overnight. Cell viability was assessed by measuring relative fluorescent units (RFU) on the SpectraMax M2e microplate reader (Molecular Devices Inc., Sunnyvale, Calif., USA) at Ex 560 nm and Em 590 nm. The results were expressed as a percentage relative to LPS alone control cells. The effects of the vehicle control, DMSO, on cell viability were also assessed.
(§1) Dexamethasone is a synthetic glucocorticoid that suppresses LPS-induced pro-inflammatory cytokine expression and was used as a control (Abraham, Lawrence et al. 2006). Supernatants were collected for human cytokine ELISAs and the manufacturer's protocol was followed to assess the cytokine response. Cells remaining after the supernatant collection were tested for relative viability by Alamar Blue cytotoxicity assay as previously described.

TNFα = assay: Cytokine response by ELISA, TNFα; type: cell-based, human; conditions: for effect on TNFα expression: LPS-stimulated THP-1, ELISA
Description: as §1

[2] = test system: rat skeletal muscle cell line, L6; assay: cells; type: cell-based; conditions: rat, 71.5 h
C. gattii strains = assay: CLSI micro-dilution MIC, C. gattii strains; type: cell-based; conditions: Cryptococcus gattii
Description: (§2) The A27-M2 CLSI standard micro-dilution method was used to screen an aurone library (MTSU Department of Chemistry) for inhibition of Cryptococcus neoformans (Cn). Each aurone was screened in triplicate. […] Toxicity assays were conducted on human THP1 macrophages and L6 rat fibroblasts.
(§3) The inhibition of Cn strains and C. gattii strains by Aurone 9051 (also referred to as “Aurone X”) was characterized in different medias (including RPMI 1640 (Standard), RPMI 1640+MOPS, Asparagine media, minimal media, or yeast extract peptone dextrose (YPD) media), against other serotypes and strains, and at different cell concentrations. Synergy of the compounds with current drugs was characterized, and a growth curve experiment was conducted.

[3] = test system: C. albicans (ATCC strain 90028); assay: Antifungal microdilution broth assay (PrestoBlue), C. albicans; type: cell-based, Candida albicans; conditions: Candida albicans, ATCC90028, across C. albicans, C. glabrata, and C. tropicalis; read-out: IC50 values against Candida species
Procedure, shortened: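 Inoculum of 1.5×10^3 cells/mL in RPMI-MOPS (0.165 M MOPS, pH 7.0), exposed to aurones for 24 h at 35 °C. Growth read by PrestoBlue (10% final) fluorescence at ex 560/em 590 nm.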

[4] = test system: Cryptococcus neoformans (Cn); assay: CLSI micro-dilution inhibition / MIC, Cryptococcus neoformans; type: cell-based
Description: C. neoformans (strain 1199s) was prepared following CLSI guidelines for the organism (CLSI, Reference Method for Broth Dilution Antifungal Susceptibility Testing of Yeasts, Approved Standard-Third. Edition, Clinical Laboratory Standards Institute, Wayne, Pa., 2008).
as §2, §3

p65 (NF-κB) = assay: Indirect immunofluorescence for NF-κB nuclear translocation, THP-1; type: cell-based, human; conditions: dose of 10 μM; THP-1, LPS 30 min
From the text: Bay 11-7082 is a compound that inhibits LPS-induced activation of IKKα/β, thereby suppressing downstream IκBα phosphorylation/degradation and p65 nuclear translocation and was used as a positive control (Catalan, Fernandez-Castillejo et al. 2012). Treated cells were fixed, permeabilized, blocked, and stained with p65 (NF-κB) primary antibody, Dylight 488 conjugated secondary antibody, and Hoechst 33342 dye, sequentially. The Hoechst and DyLight fluorophores detect changes in nuclear morphology (blue fluorescence) and NF-κB distribution (green fluorescence), respectively. Nuclear Translocation Bioapplication software on the Arrayscan VTI reader was used for image acquisition and data analysis (Thermo Fisher Scientific, Waltham, Mass., USA). For each well, at least 400 cells were automatically acquired and analyzed. The translocation index was calculated by measuring the average intensity difference of NF-κB between the identified cytoplasmic region and nuclear region.

[5] = LPS-stimulated THP-1 cells, 20 and 40 μM (one cell for all concentrations)
[6] = LPS-stimulated THP-1 cells, 20 μM, mean ± SD

In the case of `O=C1/C(=C/c2ccc(O)cc2)Oc2ccccc21` [Aurone 6, (Z)-2-(4-hydroxybenzylidene)benzofuran-3(2H)-one], the “Average % Viability (4 h with LPS)” value ([1]; 20 μM) is reported as 99.8 ± 1.5%, the “Average % Viability (4 h with LPS)” value ([1]; 40 μM) is reported as 98.5 ± 0.1% and the “Average % TNF-α Inhibition” value (TNFα; [5]) is reported as “No Inhibitions”.
For `O=C1/C(=C/c2cccc(O)c2)Oc2ccccc21` [Aurone 5, (Z)-2-(3-hydroxybenzylidene)benzofuran-3(2H)-one], the “Average % Viability (4 h with LPS)” value ([1]; 20 μM) was 94.6 ± 1.2%, the “Average % Viability (4 h with LPS)” value ([1]; 25 μM) was 92.9 ± 1.4% and the “Average % Viability (4 h with LPS)” value ([1]; 40 μM) was 90.9 ± 0.6%. The “Average % TNF-α Inhibition” value (TNFα; LPS-stimulated THP-1 cells, 20, 25 and 40 μM (one cell for all concentrations)) was “No Inhibitions”.
In the case of `COc1cc(/C=C2\Oc3ccccc3C2=O)ccc1O` [aurone 7, (Z)-2-(4-hydroxy-3-methoxybenzylidene)benzofuran-3(2H)-one], the “Average % Viability (4 h with LPS)” value ([1]; 20 μM) is reported as 97.0 ± 0.3%, the “effect on TNFα expression” value (TNFα) is reported as “weaker activity” and the “Average % TNF-α Inhibition” value (TNFα; [6]) is reported as “No Inhibition”.
With `COc1cccc(/C=C2\Oc3ccccc3C2=O)c1O` [aurone 8, (Z)-2-(2-hydroxy-3-methoxybenzylidene)benzofuran-3(2H)-one] the “Average % Viability (4 h with LPS)” value ([1]; 20 μM) was 101.3 ± 2.6%, the “effect on TNFα expression” value (TNFα) was “lack of activity” and the “Average % TNF-α Inhibition” value (TNFα; [5]) was “No Inhibitions”.
For `O=C1/C(=C/c2ccccc2O)Oc2ccccc21` [aurone 4, (Z)-2-(2-hydroxybenzylidene)benzofuran-3(2H)-one], the “Average % Viability (4 h with LPS)” value ([1]; 20 μM) was 99.4 ± 0.5%, the “effect on TNFα expression” value (TNFα) was “low activity” and the “Average % TNF-α Inhibition” value (TNFα; [6]) was “No Inhibition”.
For `O=C1/C(=C/c2ccccn2)Oc2ccccc21` [Aurone 9051], the “toxicity to L6 rat fibroblasts” value [2] was over 100 µM, the MIC (C. gattii strains; read-out: MIC, C. gattii strain R265) was 25 µg/mL and the MIC (C. gattii strains; read-out: MIC, C. gattii strain R272) was 25 µg/mL. For the same molecule, the IC50 [3] was 10 to 18 µM, the MIC ([4]; 10^3 cells, read-out: MIC, Cn) was 25 µg/mL and the MIC ([4]; 10^4 cells, read-out: MIC, Cn) was 50 µg/mL. The MIC ([4]; 10^5 cells, read-out: MIC, Cn) was 100 µg/mL, the MIC ([4]; C. neoformans 24067 (lab), serotype D, RPMI + MOPS, inoculum 2 × 10^3 CFU/ml) was 112 µM and the MIC ([4]; C. neoformans B18 (clinical), serotype A, RPMI + MOPS, inoculum 2 × 10^3 CFU/ml) was 112 µM. For the same molecule, the MIC ([4]; C. neoformans B45 (clinical), serotype A, RPMI + MOPS, inoculum 2 × 10^3 CFU/ml) was 112 µM, the MIC ([4]; C. neoformans B58 (clinical), serotype A, RPMI + MOPS, inoculum 2 × 10^3 CFU/ml, read-out: MIC) was 56 µM and the MIC ([4]; C. neoformans B3501 (lab), serotype D, RPMI + MOPS, inoculum 2 × 10^3 CFU/ml) was 112 µM. It also gave an MIC ([4]; C. neoformans H99S, serotype A, Asparagine media, inoculum 2 × 10^3 CFU/ml) of 112 µM, an MIC ([4]; C. neoformans H99S, serotype A, Minimal media, inoculum 2 × 10^3 CFU/ml) of over 4480 µM and an MIC ([4]; C. neoformans H99S, serotype A, RPMI + MOPS, inoculum 2 × 10^3 CFU/ml) of 112 µM. It also gave an MIC ([4]; C. neoformans H99S, serotype A, RPMI + MOPS, inoculum 2 × 10^4 CFU/ml) of 224 µM, an MIC ([4]; C. neoformans H99S, serotype A, RPMI + MOPS, inoculum 2 × 10^5 CFU/ml) of 448 µM and an MIC ([4]; C. neoformans H99S, serotype A, YPD media, inoculum 2 × 10^3 CFU/ml) of over 896 µM. It also gave an MIC ([4]; C. neoformans JEC21 (lab), serotype D, RPMI + MOPS, inoculum 2 × 10^3 CFU/ml) of 112 µM, an MIC ([4]; in RPMI+MOPS, read-out: MIC, Cn) of 12.5 µg/mL and an MIC ([4]; in YPD, read-out: MIC, Cn) of over 200 µg/mL. The MIC ([4]; in asparagine media, read-out: MIC, Cn) was 25 µg/mL and the MIC ([4]; running text b175, read-out: MIC against Cryptococcus neoformans) was 110 µM.
In the case of `COc1ccc(/C=C2\Oc3ccccc3C2=O)cc1O` [aurone 9, (Z)-2-(3-hydroxy-4-methoxybenzylidene)benzofuran-3(2H)-one], the melting point is reported as 186 to 187 °C, the “Average % Viability (4 h with LPS)” value ([1]; 20 μM) is reported as 101.8 ± 2.1% and the “effect on TNFα expression” value (TNFα) is reported as “weaker activity”. For the same molecule, the “Average % TNF-α Inhibition” value (TNFα; [6]) was “No Inhibition”.
`O=C1/C(=C/c2ccc(CO)o2)Oc2ccccc21` [Aurone 1] showed an inhibition at 40 µM (TNFα; Homo sapiens, LPS-stimulated THP-1 cells, 40 μM, mean ± SD, read-out: Average % TNF-α Inhibition) of 51.8 ± 13.5% and an inhibition at 80 µM (TNFα; Homo sapiens, LPS-stimulated THP-1 cells, 80 μM, mean ± SD, read-out: Average % TNF-α Inhibition) of 93.8 ± 0.7%.
For `Cc1ccc(S(=O)(=O)C=CC#N)cc1` [Bay 11-7082, 3-(4-methylphenylsulfonyl)-2-propenenitrile, reference compound], the “cytoplasmic-to-nuclear translocation of p65” value (p65 (NF-κB)) was “blocked p65 translocation”.
For `Cc1ccc(/C=C2\Oc3ccccc3C2=O)o1` [compound 2], the “Average % Viability (4 h with LPS)” value ([1]; 25 μM) was 99.4 ± 9.3%, the “Average % Viability (4 h with LPS)” value ([1]; 50 μM) was 118.3 ± 1.3% and the “Average % Viability (4 h with LPS)” value ([1]; 100 μM) was 108.9 ± 2.0%. The “effect on TNFα expression” value (TNFα) was “complete loss of activity” and the “Average % TNF-α Inhibition” value (TNFα; LPS-stimulated THP-1 cells, 25, 50 and 100 μM (one cell for all concentrations)) was “No Inhibitions”.
With `O=C1/C(=C/c2ccco2)Oc2ccccc21` [compound 3] the “Average % Viability (4 h with LPS)” value ([1]; 12.5 μM) was 104.3 ± 2.2%, the “Average % Viability (4 h with LPS)” value ([1]; 25 μM) was 102.1 ± 0.8% and the “Average % Viability (4 h with LPS)” value ([1]; 50 μM) was 92.2 ± 0.9%. For the same molecule, the “effect on TNFα expression” value (TNFα) was “complete loss of activity” and the “Average % TNF-α Inhibition” value (TNFα; LPS-stimulated THP-1 cells, 12.5, 25 and 50 μM (one cell for all concentrations)) was “No Inhibitions”.
